The target of the assay is α7 nAChR subtype (Rattus norvegicus, UniProt Q05941). Format: binding.

pKd: −log10 of the molar value.

α7 nAChR subtype, sequence (Q05941 23-502 limits assumed): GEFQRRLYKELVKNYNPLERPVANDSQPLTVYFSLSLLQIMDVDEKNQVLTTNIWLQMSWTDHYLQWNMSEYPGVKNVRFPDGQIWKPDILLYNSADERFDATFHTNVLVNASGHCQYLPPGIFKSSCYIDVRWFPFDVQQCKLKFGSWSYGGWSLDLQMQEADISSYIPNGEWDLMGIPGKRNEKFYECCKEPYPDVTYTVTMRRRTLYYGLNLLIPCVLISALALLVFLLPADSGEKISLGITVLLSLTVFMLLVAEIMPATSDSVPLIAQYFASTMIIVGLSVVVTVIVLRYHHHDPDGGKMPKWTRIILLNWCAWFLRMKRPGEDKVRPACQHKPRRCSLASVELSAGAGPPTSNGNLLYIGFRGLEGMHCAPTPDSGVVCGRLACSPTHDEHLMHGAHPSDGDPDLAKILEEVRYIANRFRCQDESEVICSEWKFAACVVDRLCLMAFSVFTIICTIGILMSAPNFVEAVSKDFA

Broadly, the pKd is −log10 of the Kd, conventionally taken in molar units. ^125I-α-Bungarotoxin [^125I-α-BTX] gave a negative logarithm of the Kd (pKd) of 8.78.

The values are drawn from patent US20070249588A1 (priority 2003, published 2007).
